In patent US11098071B2, “GPR84 receptor antagonist and use thereof” (SHANGHAI INSTITUTE OF MATERIA MEDICA, CHINESE ACADEMY OF …, priority 2017, dated 2021):

Biological target: T1, GPR84 (Homo sapiens, UniProt Q9NQS5)
T1 construct: expressed in transfected cells; host or cells: HEK293
Experiment: GPR84 calcium flow model (antagonism of agonist 6-OAU, Fluo-4 fluorescence)
Type: cell-based
Conditions: not given
Protocol: GPR84 antagonistic activity of the compounds of the invention was determined.
The human GPR84 cell line was obtained by transfecting a HEK293 cell line with a plasmid encoding GPR84 and Gα16 proteins. Fluorescent dye Fluo-4AM was purchased from Invitrogen.
Intracellular Ca^2+ ion is a very important second messenger of G protein-coupled receptor signaling pathway. […] Fluo-4 is a Ca^2+ ion-specific fluorescent probe that binds quantitatively to Ca^2+ ions and emits fluorescence. Therefore, the agonistic or antagonistic activity of the compound can be detected in a 96-well or 384-well flat-bottomed microplate using a fluorescence assay.
Detection of receptor inhibitory effect by GPR84 antagonist: After incubated with fluorescent dye Fluo-4, GPR84 cells were incubated with different concentrations of antagonistic compounds for a period of time to occupy the binding site of agonist to GPR84 (antagonistic binding site). A certain concentration of agonist (6-OAU) was added to compete with the antagonist compound for binding sites. […] The half-inhibitory concentration (IC50) of the compound was calculated by using GraphPad PRISM software.
The above ingredients were weighed and dissolved in ultrapure water. pH was adjusted to 7.4 by using hydrochloric acid or NaOH solution. The mixture was filtered and stored at 4° C. for one month.
The buffer was prepared on site.
The preparation of each milliliter of dye is as follows. 1 μL of 2 mM Fluo-4 AM was mixed with 10 μL of 3% Cremophor EL, then diluted with 1 mL of calcium buffer and mixed.
The cells were seeded at a density of 40,000 cells/well into a 96-well cell culture plate, and cultured for 24 hours or more to a cell density of 80 to 90% for experimental detection. The culture medium in the well to be tested was removed and 40 μL/well of freshly prepared dye was added and incubated in a 37-degree incubator for 40 min to 50 min.
The compound was formulated during cell incubation (this step can also be carried out in advance). The compound used as antagonist was diluted with calcium buffer freshly prepared before the experiment to 1.5 times of the final working concentration. The compound as agonist was diluted to 3 times of the final working concentration (if the compound is dissolved in DMSO, the final work concentration of DMSO shall not exceed 1%).
After the incubation step was completed, the dye was discarded, and the residue was washed with calcium buffer once and then replaced with 50 μL of calcium buffer containing different concentrations of antagonist and incubated for another 10 min.

T1 sequence (Q9NQS5 whole entry): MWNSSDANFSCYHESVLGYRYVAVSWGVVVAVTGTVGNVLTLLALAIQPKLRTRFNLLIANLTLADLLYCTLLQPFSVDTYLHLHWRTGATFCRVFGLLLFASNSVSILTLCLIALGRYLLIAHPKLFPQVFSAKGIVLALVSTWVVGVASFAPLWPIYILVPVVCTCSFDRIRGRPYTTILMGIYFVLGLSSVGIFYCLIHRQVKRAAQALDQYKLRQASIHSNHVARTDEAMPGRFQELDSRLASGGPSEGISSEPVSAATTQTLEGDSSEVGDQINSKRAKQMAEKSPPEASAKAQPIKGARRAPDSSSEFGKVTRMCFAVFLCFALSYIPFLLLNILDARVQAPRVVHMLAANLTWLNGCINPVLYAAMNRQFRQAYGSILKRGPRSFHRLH

| Compound | IC50 [nM] |
| --- | --- |
| O=P(O)(Oc1cc2ccccc2c2ccccc12)Oc1cc2ccccc2c2ccccc12 [CLH472] | 1000 to 10000 |
| O=P(O)(Oc1c2ccccc2cc2ccccc12)Oc1c2ccccc2cc2ccccc12 [CLH472a] | 100 to 1000 |

Same assay, conditions: HEK293 cell line transfected with GPR84 and Gα16; agonist 6-OAU; Fluo-4; read-out: IC50 of the compound detected by the GPR84 calcium flow model

| IC50 [nM] | Compound |
| --- | --- |
| 100 to 1000 | O=P(O)(OC1=Cc2ccccc2Oc2ccccc21)OC1=Cc2ccccc2Oc2ccccc21 [CLH482] |
| 100 to 1000 | CN1c2ccccc2C=C(OP(=O)(O)OC2=Cc3ccccc3N(C)c3ccccc32)c2ccccc21 [CLH508] |
| 100 to 1000 | C=C1c2ccccc2C=C(OP(=O)(O)OC2=Cc3ccccc3C(=C)c3ccccc32)c2ccccc21 [CLH524a] |
| 100 to 1000 | CC1c2ccccc2C=C(OP(=O)(O)OC2=Cc3ccccc3C(C)c3ccccc32)c2ccccc21 (stereo not drawn) [CLH528a] |
| 0.1 to 100 | O=P(O)(OC1=Cc2ccccc2Sc2c(O)cccc21)OC1=Cc2ccccc2Sc2c(O)cccc21 [CLH568] |
| 100 to 1000 | O=P(O)(OC1=Cc2ccccc2Sc2c(F)cccc21)OC1=Cc2ccccc2Sc2c(F)cccc21 [CLH572a] |
| 100 to 1000 | O=P(O)(OC1=Cc2ccccc2Sc2ccc(F)cc21)OC1=Cc2ccccc2Sc2ccc(F)cc21 [CLH572c] |
| 0.1 to 100 | COc1cccc2c1Sc1ccccc1C=C2OP(=O)(O)OC1=Cc2ccccc2Sc2c(O)cccc21 [CLH582] |
| 1000 to 10000 | O=P(O)(OC1=Cc2ccccc2[S+]([O-])c2ccccc21)OC1=Cc2ccccc2S(=O)(=O)c2ccccc21 (stereo not drawn) [CLH584] |
| 0.1 to 100 | COc1ccc2c(c1)Sc1ccccc1C=C2OP(=O)(O)OC1=Cc2ccccc2Sc2cc(OC)ccc21 [CLH596b] |
| 0.1 to 100 | COc1ccc2c(c1)C(OP(=O)(O)OC1=Cc3ccccc3Sc3ccc(OC)cc31)=Cc1ccccc1S2 [CLH596c] |
| 1000 to 10000 | O=P(O)(OC1=Cc2ccccc2S(=O)(=O)c2ccccc21)OC1=Cc2ccccc2S(=O)(=O)c2ccccc21 [CLH600] |
| 0.1 to 100 | CCOc1cccc2c1Sc1ccccc1C=C2OP(=O)(O)OC1=Cc2ccccc2Sc2c(OCC)cccc21 [CLH624] |
| 0.1 to 100 | COc1cccc2c1Sc1ccccc1C=C2OP(=O)(O)OC1=Cc2cc(C(C)C(=O)O)ccc2Sc2ccccc21 (stereo not drawn) [CLH638] |
| 1000 to 10000 | CC(C(=O)O)c1ccc2c(c1)C=C(OP(=O)(O)OC1=Cc3cc(C(C)C(=O)O)ccc3Sc3ccccc31)c1ccccc1S2 (stereo not drawn) [CLH680] |
| 1000 to 10000 | O=P(O)(CC1=Cc2ccccc2Sc2ccccc21)CC1=Cc2ccccc2Sc2ccccc21 [XYF532] |
| 100 to 1000 | O=P(O)(OC1=Cc2ccc(F)cc2Sc2ccccc21)OC1=Cc2ccc(F)cc2Sc2ccccc21 [XYF573] |
| 0.1 to 100 | O=P(O)(OC1=Cc2cc(F)ccc2Sc2ccccc21)OC1=Cc2cc(F)ccc2Sc2ccccc21 [XYF573b] |
| 0.1 to 100 | O=P(O)(OC1=Cc2cc(Cl)ccc2Sc2ccccc21)OC1=Cc2cc(Cl)ccc2Sc2ccccc21 [XYF604b] |
| 0.1 to 100 | COc1cccc2c1SC1=C(C=C2OP(=O)(O)OC2=CC3=C(SCC3)Sc3c(OC)cccc32)CCS1 [XYF608] |
| 1000 to 10000 | CCc1cccc2c1Sc1cc(F)ccc1C=C2OP(=O)(O)OC1=Cc2ccc(F)cc2Sc2c(CC)cccc21 [XYF628] |
| 100 to 1000 | CCc1cccc2c1Sc1ccc(F)cc1C=C2OP(=O)(O)OC1=Cc2cc(F)ccc2Sc2c(CC)cccc21 [XYF628b] |
| 100 to 1000 | COc1cccc2c1Sc1c(OC)cccc1C(OP(=O)(O)OC1=Cc3cccc(OC)c3Sc3c(OC)cccc31)=C2 [XYF656a] |

The remaining lines, values behind:

| Compound | IC50 [nM] |
| --- | --- |
| O=P(O)(OC1=Cc2ccccc2Sc2ccccc21)OC1=Cc2ccccc2Sc2ccccc21 [CLH514] | 0.1 to 100 |
| O=P(O)(O/C1=C/c2ccccc2/C=C\c2ccccc21)O/C1=C/c2ccccc2/C=C\c2ccccc21 [CLH524] | 100 to 1000 |
| O=P(O)(OC1=CC2=C(CCCC2)Sc2ccccc21)OC1=CC2=C(CCCC2)Sc2ccccc21 [CLH544] | 100 to 1000 |
| O=P(O)(OC1=Cc2ccccc2SC2=C1CCCC2)OC1=Cc2ccccc2SC2=C1CCCC2 [CLH544a] | 100 to 1000 |
| O=P(O)(OC1=Cc2ccccc2Sc2sccc21)OC1=Cc2ccccc2Sc2sccc21 [CLH548] | 0.1 to 100 |
| COc1cccc2c1Cc1ccccc1C=C2OP(=O)(O)OC1=Cc2ccccc2Cc2c(OC)cccc21 [CLH560] | 0.1 to 100 |
| O=P(O)(OC1=Cc2ccccc2Sc2cc(F)ccc21)OC1=Cc2ccccc2Sc2cc(F)ccc21 [CLH572b] | 100 to 1000 |
| O=P(O)(OC1=Cc2ccccc2C2(OCCO2)c2ccccc21)OC1=Cc2ccccc2C2(OCCO2)c2ccccc21 [CLH616a] | 100 to 1000 |
| CC(C)Oc1cccc2c1Sc1ccccc1C=C2OP(=O)(O)OC1=Cc2ccccc2Sc2c(OC(C)C)cccc21 [CLH652] | 100 to 1000 |
| COc1cc2c(cc1OC)C(OP(=O)(O)OC1=Cc3ccccc3Sc3cc(OC)c(OC)cc31)=Cc1ccccc1S2 [CLH656] | 0.1 to 100 |
| COc1ccc(OC)c2c1Sc1ccccc1C=C2OP(=O)(O)OC1=Cc2ccccc2Sc2c(OC)ccc(OC)c21 [CLH656a] | 100 to 1000 |
| CCOC(=O)C(C)c1ccc2c(c1)C=C(OP(=O)(O)OC1=Cc3ccccc3Sc3c(OC)cccc31)c1ccccc1S2 (stereo not drawn) [CLH666] | 0.1 to 100 |
| CCOC(=O)C(C)c1ccc2c(c1)C=C(OP(=O)(O)OC1=Cc3cc(C(C)C(=O)OCC)ccc3Sc3ccccc31)c1ccccc1S2 (stereo not drawn) [CLH736] | 1000 to 10000 |
| O=P(O)(O/C1=C/c2ccccc2CCc2ccccc21)O/C1=C/c2ccccc2CCc2ccccc21 [XYF528] | 100 to 1000 |
| O=P(O)(OC1=Cc2c(F)cccc2Cc2ccccc21)OC1=Cc2c(F)cccc2Cc2ccccc21 [XYF536c] | 0.1 to 100 |
| O=P(O)(OC1=Cc2c(F)cccc2Oc2ccccc21)OC1=Cc2c(F)cccc2Oc2ccccc21 [XYF540] | 0.1 to 100 |
| O=P(O)(OC1=Cc2ccsc2Sc2sccc21)OC1=Cc2ccsc2Sc2sccc21 [XYF560] | 100 to 1000 |
| COc1cccc2c1Oc1ccccc1C=C2OP(=O)(O)OC1=Cc2ccccc2Oc2c(OC)cccc21 [XYF564-2a] | 0.1 to 100 |
| Cc1ccc2c(c1)C(OP(=O)(O)OC1=Cc3ccccc3Sc3ccc(C)cc31)=Cc1ccccc1S2 [XYF564c] | 0.1 to 100 |
| O=P(O)(OC1=Cc2cccc(F)c2Sc2ccccc21)OC1=Cc2cccc(F)c2Sc2ccccc21 [XYF573a] | 100 to 1000 |
| O=P(O)(OC1=Cc2c(F)cccc2Sc2ccccc21)OC1=Cc2c(F)cccc2Sc2ccccc21 [XYF573c] | 0.1 to 100 |
| O=P(O)(OC1=Cc2cccc(Cl)c2Sc2ccccc21)OC1=Cc2cccc(Cl)c2Sc2ccccc21 [XYF604] | 100 to 1000 |
| CCc1cccc2c1Sc1c(F)cccc1C=C2OP(=O)(O)OC1=Cc2cccc(F)c2Sc2c(CC)cccc21 [XYF628a] | 0.1 to 100 |
| CCc1cccc2c1Sc1ccccc1C=C2OP(=O)(O)OC1=Cc2ccccc2Sc2c(CC)cccc21 [XYF628c] | 0.1 to 100 |
| COc1cccc2c1Sc1cc(F)ccc1C=C2OP(=O)(O)OC1=Cc2ccc(F)cc2Sc2c(OC)cccc21 [XYF632] | 0.1 to 100 |
| COc1cccc2c1Sc1c(F)cccc1C=C2OP(=O)(O)OC1=Cc2cccc(F)c2Sc2c(OC)cccc21 [XYF632a] | 0.1 to 100 |
| COc1cccc2c1Sc1ccc(F)cc1C=C2OP(=O)(O)OC1=Cc2cc(F)ccc2Sc2c(OC)cccc21 [XYF632b] | 0.1 to 100 |
| COc1cccc2c1Sc1cccc(F)c1C=C2OP(=O)(O)OC1=Cc2c(F)cccc2Sc2c(OC)cccc21 [XYF632c] | 0.1 to 100 |
| COc1ccc2c(c1)Sc1c(OC)cccc1C(OP(=O)(O)OC1=Cc3ccc(OC)cc3Sc3c(OC)cccc31)=C2 [XYF656] | 0.1 to 100 |
